Measured values as given in patent US20190369111A1, “MOLECULAR KINETICS EVALUATION METHOD AND SCREENING METHOD” (Tokyo University of Science Foundation, priority 2016, published 2019).

Molecular target: T1, MDM2 protein (Homo sapiens, UniProt Q00987)
T1 construct: an endogenous wild-type p53 protein and MDM2 protein in HCT116 cells (human large intestine cancer cells); endogenous in cells; host or cells: HCT116 cells
Experiment: Degradation of endogenous MDM2 protein in HCT116 cells, Western blot analysis
Format: cell-based
Conditions: 48 hours after addition
Description: HCT116 cells were seeded in a 24-well plate at a cell density of 8×10^4 cells/well, and then cultured under conditions of 37° C. and 5 vol % CO2 for 16 hours.
After 16 hours from cell seeding, TIBC-CANDDY_MLN or TIBC was added to HCT116 cells as follows. As a medium, a serum-free medium (37° C.) in which 1 mass % L-glutamine solution (Sigma-Aldrich) was added to D-MEM (high D-glucose, phenol red, sodium pyruvate (Wako Pure Chemical Industries, Ltd.)) was used. It is noted that the L-glutamine solution was added immediately before use. A DMSO solution containing TIBC-CANDDY_MLN or TIBC was mixed with the medium so that the concentration of DMSO was 1 vol %, and added to each well at 500 μL/well, and cultured under conditions of 37° C. and 5 vol % CO2. As a control, DMSO was used.
The medium was removed 48 hours after addition of TIBC-CANDDY_MLN or TIBC, and then PBS was added to wash the cells. […]
After electrophoresis, proteins were transferred to a PVDF membrane (Immobion™-P, Millipore) under conditions of 100 V and 2 hours using a tank-type blotting device and a transfer buffer (25 mM Tris-HCl, 195 mM glycine, 0.01% SDS, 15% methanol). […] Subsequently, the membrane was treated with a chemiluminescence reagent Immobilon™ Western (Millipore), and then chemiluminescence was detected using a lumino image analyzer LAS-3000 (FUJIFILM Corporation).

T1 sequence (Q00987 whole entry): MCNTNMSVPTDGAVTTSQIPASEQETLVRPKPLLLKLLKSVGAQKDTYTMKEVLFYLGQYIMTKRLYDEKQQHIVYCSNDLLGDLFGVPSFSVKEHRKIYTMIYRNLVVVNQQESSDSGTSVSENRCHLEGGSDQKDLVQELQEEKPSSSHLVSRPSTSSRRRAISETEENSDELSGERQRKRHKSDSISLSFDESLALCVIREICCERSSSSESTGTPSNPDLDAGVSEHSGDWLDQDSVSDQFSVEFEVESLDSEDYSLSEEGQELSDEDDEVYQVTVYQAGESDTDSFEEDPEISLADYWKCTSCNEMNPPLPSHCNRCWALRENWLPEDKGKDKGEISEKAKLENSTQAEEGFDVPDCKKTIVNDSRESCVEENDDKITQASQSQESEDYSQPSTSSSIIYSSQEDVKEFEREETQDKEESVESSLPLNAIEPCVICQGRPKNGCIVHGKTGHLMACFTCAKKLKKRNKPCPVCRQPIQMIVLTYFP

`CC(C)C[C@H](NC(=O)CNC(=O)c1cc(Cl)ccc1Cl)C(=O)NCCCCCCC(=O)Nc1ccc(C(=O)/C=C/c2ccc(I)cc2)cc1` [TIBC-CANDDY_MLN] was tested, and the “amount of endogenous MDM2 protein” value was “reduced”.
